ChEMBL document CHEMBL1147304, “Antioxidant metabolites from the tunicate Amaroucium multiplicatum” (J Nat Prod, 1989)
In brackets after ≈: the same amount, converted by molar mass.

Legend:
[1] = Inhibition of soybean arachidonate 15-lipoxygenase by oxygen electrode method; parameters: species or system Glycine max
[2] = test system: Liver microsomes; test: Antioxidant activity in rat liver microsomes assessed as inhibition of lipid peroxide formation after 30 mins; format: functional, Microsome

SMILES	IC50 [1] [µg/mL]	IC50 [2] [µg/mL]
COc1cc2c(cc1O)C=CC(C)(CCC=C(C)C)O2 (stereo not drawn)	0.5 (≈ 1.82 µM)	0.1 (≈ 0.364 µM)
CC(C)=CCCC(C)(O)/C=C/c1cc(O)ccc1O (stereo not drawn)		0.3 (≈ 1.14 µM)
CC(C)=CCCC(C)(O)CCc1cc(O)ccc1O (stereo not drawn)	3 (≈ 11.3 µM)	0.3 (≈ 1.13 µM)
CC(=O)Oc1c(C)c(C)c2c(c1C)CCC(C)(CCC[C@H](C)CCC[C@H](C)CCCC(C)C)O2 (stereo partly drawn) [TOCOPHEROL ACETATE]	> 10	> 10
CC(C)=CCCC1(C)C=Cc2cc(O)ccc2O1 (stereo not drawn) [CORDIACHROMENE A]	0.2 (≈ 0.819 µM)	0.3 (≈ 1.23 µM)
CC(C)=CCC/C(C)=C/Cc1cc(O)ccc1O [GEROQUINOL]	0.2 (≈ 0.812 µM)	0.1 (≈ 0.406 µM)
Cc1cc(C(C)(C)C)c(O)c(C(C)(C)C)c1 [BUTYLATED HYDROXYTOLUENE]	> 10	0.3 (≈ 1.36 µM)
